Measured values taken from PMC7023394, “Cell Penetrating Peptide as a High Safety Anti-Inflammation Ingredient for Cosmetic Applications” (Biomolecules, 2020).
Where no end group is shown, it is not given here.

Tests used:
[1] = test system: cysteine- or lysine-containing peptide; assay: In chemico skin sensitization: Direct Peptide Reactivity Assay (DPRA, OECD 442C); details: for DPRA Prediction: cysteine 1:10/lysine 1:50 prediction model
Description: The direct peptide reactivity assay (DPRA) is an in chemico method which quantified the remaining concentration of cysteine- or lysine-containing peptide after 24 h incubation with the test chemical at 25 °C. Relative peptide concentration was measured by HPLC (Waters, Milford, MA, USA) with gradient elution and UV detection (220 nm). […] This model allowed to classify the test chemical to one of four reactivity classes used to support the discrimination between sensitisers and non-sensitisers.

[2] = test system: Raw264.7 macrophage cells; type: cell-based; details: 1 µM
Description: In this experiment, macrophage (Raw264.7) cells were seeded in 96-well plates (5 × 10^5 cells/mL) and allowed to attach overnight. After attachment, cells were incubated with various concentrations of CPPAIF for 1 h and followed by stimulation with 1 μg/mL of LPS (lipopolysaccharide). No LPS-added cells were considered as control groups. After incubation, the amount of TNF-α and IL-6 in the medium were analyzed by enzyme linked immunosorbent assay (# KHC3011 and #EH2IL6, Thermo Fisher, Waltham, MA, USA). Cell viability was measured by AlamarBlue cell viability assay (BUF012B, Bio-Rad, Hercules, CA, USA).
Figure 5 Anti-inflammation activity of CPPAIF. Raw264.7 macrophage cells were seeded in 96-well plates (5 × 10^5 cells/mL) and allowed to attach overnight. After attachment, the cells were incubated with various concentrations of CPPAIF for 1 h followed by stimulation with 1 μg/mL of LPS. The control group was not treated with LPS and its cytokine secretion was set as 100% (mock). The amounts of TNFα (A) and IL-6 (B) in the medium were analyzed by ELISA. Cell viability was measured by AlamarBlue cell viability assay. *** p < 0.001 versus the control group.

[3] = Stability of CPPAIF in W/O and O/W emulsions (HPLC); type: physicochemical; details: 0.1 mM CPPAIF
[4] = test system: SkinEthic RHE 3D reconstructed human epidermis tissue model; assay: In vitro skin irritation test (OECD 439); details: 1 mM
[5] = test system: 3D human epidermis tissue model (SkinEthic RHE); assay: Transepidermal measurement by reconstructed human epidermis tissue model; type: in vitro ADME; details: 100 μL containing 100 μM CPPAIF, of exposure (method and legend: 1 h), HPLC, mean ± SD of three
Description: 3D human epidermis tissue model (SkinEthic™ RHE, SkinEthics, Lyon, France) and two kinds of CPPAIF-containing emulsion systems (water-in-oil emulsion (W/O) and oil-in-water emulsion (O/W)) were prepared for the transepidermal measurements. […] After treatment liquid beneath the model was collected for HPLC quantification. Transepidermal rate was calculated by measuring the amount of CPPAIF in medium beneath the 3D model by HPLC ((concentration of the beneath liquid/concentration of the topical exposure) × 100).
Figure 8 Transepidermal degree of formulated CPPAIF in SkinEthic^TM RHE model. All 3D reconstructed human epidermis tissues were incubated with growth medium for 2 h, then 0.1 mL formulated CPPAIF (0.1 mM) emulsions were added to the top of the tissues and incubated for 1 h. After treatment the liquid beneath the 3D skin model was collected for HPLC quantification. Transepidermal degree was calculated by measuring the amount of CPPAIF in the liquid beneath the 3D skin model using HPLC. ** p < 0.01 versus the W/O formulation group.

RBL-2H3 mast cells = assay: Mast cell degranulation assay (β-hexosaminidase release); type: cell-based, rat; details: under 10 μM (0, 0.1, 1, 2, 5, 10 μM); PC A23187 set as 100%
Description: Inhibitory effects on release of β-hexosaminidase in RBL-2H3 (rat-basophilic leukemia cell line) were evaluated by a cell degranulation assay. Briefly, 0.2 mL of 5 × 10^5 cells/mL RBL-2H3 cells were seed in 24-well plates (in Minimum Essential Medium (MEM) containing 10% Fetal Bovine Serum (FBS), streptomycin (100 µg/mL) and penicillin (100 units/mL)) and sensitized with anti-DNP IgE (0.45 µg/mL). These cells were washed with Siraganian buffer (5 mM KCl, 0.4 mM MgCl2, 119 mM NaCl, 25 mM piperazine-N,N 2-bis(2-ethane sulfonic acid (PIPES), and 40 mM NaOH, pH 7.2) with glucose, 1 mM CaCl2, and 0.1% bovine serum albumin (BSA). After washing, these cell were incubated in 160 µL of the PBS for 10 min at 37 °C and then 20 µL of test sample solution or calcimycin (final 1 mM) was added and further incubated for 10 min. The plate was cooling on ice for 10 min to stop reaction. 50 µL of supernatant was transferred to 96-well plate and added with 50 µL of substrate (1 mM p-nitrophenyl N-acetyl-β-D-glucosaminide) in 0.1 M citrate buffer (pH 4.5) at 37 °C for 2.5 h. The reaction was stopped by adding 200 µL of carbonate-bicarbonate buffer (0.1 M, pH 10.0). The value of A405 was measured with a microplate reader.
Figure 6 Sensitization test of CPPAIF. The sensitization of CPPAIF was evaluated by mast cell degranulation assay. […]

HaCaT cells = assay: Internalization of TMR-CPPAIF in human keratinocytes (confocal microscopy); type: cell-based; details: 20 µM, 37 °C, 30 min, confocal laser-scanning microscopy
Description: Confocal Laser-scanning Microscopy (CLSM, Zeiss Cell Observer-Z1, Baden-Württemberg, Germany) was performed to assess distribution of TMR-labeled CPPAIF (tetramethylrhodamine-[…], synthesized by Kelowna International Scientific, Taipei, Taiwan) in human keratinocytes, HaCaT. First, apply a layer of type I collagen on a glass cover slip, dry and sterilize the cover slip with UV light. Then, culture the HaCaT cells ([…] per slip) on the coverslip for 16 h. The attached HaCaT cells were cultured with 20 μM of the TMR- CPPAIF for 30 min, observed with CLSM (63× oil-immersion objective lens), and photographed under same exposure conditions.
Figure 7 Internalization of TMR-CPPAIF. HaCaT cells (1 × 10^3) were seeded on collagen I coated cover slide and incubated at 37 °C for 16 h. The cells were then incubatd with 20 μM of TMR-CPPAIF at 37 °C for 30 min. After washing and fixing, the cells were mounted and monitored by confocal microscopy. Red: TMR; Blue: nuclear staining with DAPI. (Magnification: 63×).

[6] = test item 100 mM, 24 h, 25 °C, HPLC, UV 220 nm

OCCOc1ccccc1 [Phenoxyethanol, phenoxyethanol]
Cysteine Depletion [1, 6]: 1.38% | Lysine Depletion [1, 6]: −0.25% | Mean of Cysteine and Lysine % Depletion [1, 6]: 0.56% | DPRA Prediction ([1]; test item 100 mM): Non-sensitiser

NYRWRCKNQN [CPPAIF]
cell viability [2]: 85.2 ± 4.25% | DPRA Prediction ([1]; test item 0.1 mM): Non-sensitiser | stability of CPPAIF in emulsion compositions [3]: did not influence stability | skin irritation classification of OECD 439 [4]: did not cause skin irritation (no category) | Transepidermal degree ((concentration in the beneath liquid/concentration in the topical exposure) × 100) ([5]; O/W formulation): 28.4 ± 1.7% | Transepidermal degree ((concentration in the beneath liquid/concentration in the topical exposure) × 100) ([5]; W/O formulation): 41.4 ± 3.6% | mast cell degranulation release (β-hexosaminidase) (RBL-2H3 mast cells): did not induce any mast cell degranulation release

tetramethylrhodamine-NYRWRCKNQN [TMR-CPPAIF, tetramethylrhodamine-labeled CPPAIF]
internalization into cells (TMR signal) (HaCaT cells): internalized into the cells
